Laboratory results taken from patent US8058475B2, “Substituted cyclohexylmethyl compounds” (Gruenenthal GmbH, priority 2005, dated 2011).

Molecular target: human μ-opiate receptor (Homo sapiens, UniProt P35372)
Assay: Affinity for the human μ-opiate receptor ([3H]-naloxone displacement, SPA, CHO-K1 membrane preparation)
Format: binding
Conditions: for inhibition at 1 µM: read-out: μ-Opioid receptor, % inhibition [1 μM]; for Ki: read-out: μ-Opioid receptor, Ki

Sequence of human μ-opiate receptor (P35372 whole entry): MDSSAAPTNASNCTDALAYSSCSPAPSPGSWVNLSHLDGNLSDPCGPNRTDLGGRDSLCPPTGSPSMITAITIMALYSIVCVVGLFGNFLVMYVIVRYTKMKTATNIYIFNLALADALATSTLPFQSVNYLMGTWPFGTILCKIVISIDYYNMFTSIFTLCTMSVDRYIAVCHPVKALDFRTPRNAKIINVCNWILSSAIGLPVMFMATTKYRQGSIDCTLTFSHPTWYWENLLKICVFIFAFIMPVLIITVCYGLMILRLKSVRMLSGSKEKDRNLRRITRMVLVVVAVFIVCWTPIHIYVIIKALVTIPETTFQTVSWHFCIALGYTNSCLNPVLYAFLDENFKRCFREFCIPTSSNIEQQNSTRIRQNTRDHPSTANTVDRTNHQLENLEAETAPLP

Row | SMILES | inhibition at 1 µM [%] | Ki [nM] | μ-Opioid receptor, % inhibition [1 μM] [%]
1 | CN(C)C(c1cccc(F)c1)C1CCC(NC(=O)CC(C)(C)C)CC1 (stereo not shown) [compound 251, N-{4-[dimethylamino-(3-fluoro-phenyl)-methyl]-cyclohexyl}-3,3-dimethyl-butyramide] | 81 | 91 | –
2 | CN(C)C(c1ccccc1)C1CCC(NC(=O)c2scc(S(C)(=O)=O)c2Cl)CC1 (stereo not shown) [compound 252, 3-chloro-4-methanesulfonyl-thiophene-2-carboxylic acid [4-(dimethylamino-phenyl-methyl)-cyclohexyl]-amide] | 81 | 20 | –
3 | Cc1c(S(=O)(=O)c2ccc(Cl)cc2)csc1C(=O)NC1CCC(C(c2ccccc2)N(C)C)CC1 (stereo not shown) [compound 253, 4-(4-chloro-benzenesulfonyl)-3-methyl-thiophene-2-carboxylic acid [4-(dimethylamino-phenyl-methyl)-cyclohexyl]-amide] | – | 79 | 80
4 | CN(C)C(c1ccccc1)C1CCC(NC(=O)COCc2ccccc2)CC1 (stereo not shown) [compound 254, 2-benzyloxy-N-[4-(dimethylamino-phenyl-methyl)-cyclohexyl]-acetamide] | 80 | 56 | –
5 | CN(C)C(c1ccccc1)C1CCC(NC(=O)Cc2cccs2)CC1 (stereo not shown) [compound 255, N-[4-(dimethylamino-phenyl-methyl)-cyclohexyl]-2-thiophen-2-yl-acetamide] | 80 | 46 | –
6 | Cc1nc(-c2ccccc2)sc1C(=O)NC1CCC(C(c2cccc(F)c2)N(C)C)CC1 (stereo not shown) [compound 256, 4-methyl-2-phenyl-thiazole-5-carboxylic acid {4-[dimethylamino-(3-fluoro-phenyl)-methyl]-cyclohexyl}-amide] | 80 | 80 | –
7 | CN(C)C(c1cccs1)C1CCC(NC(=O)c2cccnc2Oc2ccc(Cl)cc2)CC1 (stereo not shown) [compound 257, 2-(4-chloro-phenoxy)-N-[4-(dimethylamino-thiophen-2-yl-methyl)-cyclohexyl]-nicotinamide] | 79 | 81 | –
8 | CN(C)C(CCc1ccccc1)C1CCC(NC(=O)c2ccc(F)cc2)CC1 (stereo not shown) [compound 258, N-[4-(1-dimethylamino-3-phenyl-propyl)-cyclohexyl]-4-fluoro-benzamide] | 79 | 68 | –
9 | CN(C)C(c1ccccc1)C1CCC(NC(=O)c2cncc(Br)c2)CC1 (stereo not shown) [compound 259, 5-bromo-N-[4-(dimethylamino-phenyl-methyl)-cyclohexyl]-nicotinamide] | – | 62 | 79
10 | CCn1nc(C)c(Br)c1C(=O)NC1CCC(C(c2cccs2)N(C)C)CC1 (stereo not shown) [compound 260, 4-bromo-2-ethyl-5-methyl-2H-pyrazole-3-carboxylic acid [4-(dimethylamino-thiophen-2-yl-methyl)-cyclohexyl]-amide] | 78 | – | –
11 | CN(C)C(c1ccccc1)C1CCC(NC(=O)c2cccc(C#N)c2)CC1 (stereo not shown) [compound 261, 3-cyano-N-[4-(dimethylamino-phenyl-methyl)-cyclohexyl]-benzamide] | 78 | 130 | –
12 | CN(C)C(c1ccc(F)cc1)C1CCC(NC(=O)c2ccc(F)cc2)CC1 (stereo not shown) [compound 262, N-{4-[dimethylamino-(4-fluoro-phenyl)-methyl]-cyclohexyl}-4-fluoro-benzamide] | 78 | 96 | –
13 | CN(C)C(c1ccc(F)cc1)C1CCC(NC(=O)c2cccc(Br)c2)CC1 (stereo not shown) [compound 263, 3-bromo-N-{4-[dimethylamino-(4-fluoro-phenyl)-methyl]-cyclohexyl}-benzamide] | 78 | 28 | –
14 | CN(C)C(c1cccc(F)c1)C1CCC(NC(=O)c2csc(-c3ccccc3)n2)CC1 (stereo not shown) [compound 264, 2-phenyl-thiazole-4-carboxylic acid {4-[dimethylamino-(3-fluoro-phenyl)-methyl]-cyclohexyl}-amide] | 78 | 110 | –
15 | Cc1cc(C(=O)NC2CCC(C(c3cccc(F)c3)N(C)C)CC2)c(C)o1 (stereo not shown) [compound 265, 2,5-dimethyl-furan-3-carboxylic acid {4-[dimethylamino-(3-fluoro-phenyl)-methyl]-cyclohexyl}-amide] | 78 | 140 | –
16 | Cc1oc(-c2ccccc2)cc1C(=O)NC1CCC(C(c2cccc(F)c2)N(C)C)CC1 (stereo not shown) [compound 266, 2-methyl-5-phenyl-furan-3-carboxylic acid {4-[dimethylamino-(3-fluoro-phenyl)-methyl]-cyclohexyl}-amide] | 78 | 36 | –
17 | CN(C)C(c1cccc(F)c1)C1CCC(NC(=O)c2ccc(-c3ccccn3)s2)CC1 (stereo not shown) [compound 267, 5-pyridin-2-yl-thiophene-2-carboxylic acid {4-[dimethylamino-(3-fluoro-phenyl)-methyl]-cyclohexyl}-amide] | 77 | 150 | –
18 | CCn1nc(C)c(Br)c1C(=O)NC1CCC(C(c2ccccc2)N(C)C)CC1 (stereo not shown) [compound 268, 4-bromo-2-ethyl-5-methyl-2H-pyrazole-3-carboxylic acid [4-(dimethylamino-phenyl-methyl)-cyclohexyl]-amide] | 76 | 86 | –

Row | SMILES | inhibition at 1 µM [%] | Ki [nM] | μ-Opioid receptor, % inhibition [1 μM] [%]
19 | CN(C)C(c1cccc(F)c1)C1CCC(NC(=O)c2ccc(F)c(Cl)c2)CC1 (stereo not shown) [compound 269, 3-chloro-N-{4-[dimethylamino-(3-fluoro-phenyl)-methyl]-cyclohexyl}-4-fluoro-benzamide] | 75 | 47 | –
20 | CN(C)C(c1ccc(F)cc1)C1CCC(NC(=O)c2ccc(Cl)c(Cl)c2)CC1 (stereo not shown) [compound 270, 3,4-dichloro-N-{4-[dimethylamino-(4-fluoro-phenyl)-methyl]-cyclohexyl}-benzamide] | 75 | 190 | –
21 | CN(C)C(c1ccc(F)cc1)C1CCC(NC(=O)c2cc(F)c(F)cc2F)CC1 (stereo not shown) [compound 271, N-{4-[dimethylamino-(4-fluoro-phenyl)-methyl]-cyclohexyl}-2,4,5-trifluoro-benzamide] | 75 | 19 | –
22 | CN(C)C(c1ccccc1)C1CCC(NC(=O)C2CCCCC2)CC1 (stereo not shown) [compound 272, cyclohexanecarboxylic acid [4-(dimethylamino-phenyl-methyl)-cyclohexyl]-amide] | 75 | 90 | –
23 | CCC(C(=O)NC1CCC(C(c2cccc(F)c2)N(C)C)CC1)c1ccccc1 (stereo not shown) [compound 273, N-{4-[dimethylamino-(3-fluoro-phenyl)-methyl]-cyclohexyl}-2-phenyl-butyramide] | 75 | 81 | –
24 | CN(C)C(c1cccc(F)c1)C1CCC(NC(=O)Cc2ccc(Cl)cc2)CC1 (stereo not shown) [compound 274, 2-(4-chloro-phenyl)-N-{4-[dimethylamino-(3-fluoro-phenyl)-methyl]-cyclohexyl}-acetamide] | 74 | 99 | –
25 | CN(C)C(c1ccccc1)C1CCC(NC(=O)c2cccc([N+](=O)[O-])c2)CC1 (stereo not shown) [compound 275, N-[4-(dimethylamino-phenyl-methyl)-cyclohexyl]-3-nitro-benzamide] | 74 | 100 | –
26 | CN(C)C(CCc1ccccc1)C1CCC(NC(=O)c2cc(F)ccc2F)CC1 (stereo not shown) [compound 276, N-[4-(1-dimethylamino-3-phenyl-propyl)-cyclohexyl]-2,5-difluoro-benzamide] | 74 | 65 | –
27 | CN(C)C(CCc1ccccc1)C1CCC(NC(=O)c2cccc(Br)c2)CC1 (stereo not shown) [compound 277, 3-bromo-N-[4-(1-dimethylamino-3-phenyl-propyl)-cyclohexyl]-benzamide] | 74 | 74 | –
28 | CN(C)C(c1cccc(F)c1)C1CCC(NC(=O)c2c(F)cccc2F)CC1 (stereo not shown) [compound 278, N-{4-[dimethylamino-(3-fluoro-phenyl)-methyl]-cyclohexyl}-2,6-difluoro-benzamide] | 74 | 86 | –
29 | Cc1cc(C(=O)NC2CCC(C(c3ccccc3)N(C)C)CC2)c(C)o1 (stereo not shown) [compound 279, 2,5-dimethyl-furan-3-carboxylic acid [4-(dimethylamino-phenyl-methyl)-cyclohexyl]-amide] | 74 | 140 | –
30 | CN(C)C(c1ccc(F)cc1)C1CCC(NC(=O)c2ccc(F)c(Cl)c2)CC1 (stereo not shown) [compound 280, 3-chloro-N-{4-[dimethylamino-(4-fluoro-phenyl)-methyl]-cyclohexyl}-4-fluoro-benzamide] | 73 | 310 | –
31 | CN(C)C(c1ccccc1)C1CCC(NC(=O)c2cc(F)ccc2C(F)(F)F)CC1 (stereo not shown) [compound 281, N-[4-(dimethylamino-phenyl-methyl)-cyclohexyl]-5-fluoro-2-trifluoromethyl-benzamide] | 73 | 46 | –
32 | Cc1cc(C(=O)NC2CCC(C(c3ccccc3)N(C)C)CC2)no1 (stereo not shown) [compound 282, 5-methyl-isoxazole-3-carboxylic acid [4-(dimethylamino-phenyl-methyl)-cyclohexyl]-amide] | 73 | 110 | –
33 | Cc1nc(-c2ccc3c(c2)CCO3)sc1C(=O)NC1CCC(C(c2cccs2)N(C)C)CC1 (stereo not shown) [compound 283, 2-(2,3-dihydro-benzofuran-5-yl)-4-methyl-thiazole-5-carboxylic acid [4-(dimethylamino-thiophen-2-yl-methyl)-cyclohexyl]-amide] | 72 | 150 | –
34 | CN(C)C(c1ccccc1)C1CCC(NC(=O)COc2ccc(Cl)cc2)CC1 (stereo not shown) [compound 284, 2-(4-chloro-phenoxy)-N-[4-(dimethylamino-phenyl-methyl)-cyclohexyl]-acetamide] | 72 | 63 | –
35 | Cc1oc(-c2ccc(Cl)cc2)cc1C(=O)NC1CCC(C(c2cccc(F)c2)N(C)C)CC1 (stereo not shown) [compound 285, 5-(4-chloro-phenyl)-2-methyl-furan-3-carboxylic acid {4-[dimethylamino-(3-fluoro-phenyl)-methyl]-cyclohexyl}-amide] | 71 | – | –
36 | CN(C)C(c1ccccc1)C1CCC(NC(=O)c2ccccc2Br)CC1 (stereo not shown) [compound 286, 2-bromo-N-[4-(dimethylamino-phenyl-methyl)-cyclohexyl]-benzamide] | 71 | 54 | –
